Data on 24 compounds can be found in US20110319392A1, “Thiazole Sulfonamide And Oxazole Sulfonamide Kinase Inhibitors” (priority 2009, published 2011).

Structures can show the parent of a compound that is named as a salt.

One test concerns the target B-Raf (Homo sapiens, UniProt P15056). As to the kind of experiment: B-Raf Accelerated MEK ATPase assay (BRAMA), Method A or B. Format: biochemical. The following applies: Method B: final MEK 150 nM, single end point read. Summed up:
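ADP production, initiated by catalytic activated Raf with unphosphorylated MEK, is followed by NADH oxidation through a PK/LDH coupled system. Method B differs from the kinetic Method A by a single end-point read and 150 nM final MEK.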

In the next test the test system is BT474 tumor cells. As to the kind of experiment: Cell growth inhibition assay (CellTiter-Glo), BT474. Format: cell-based, Human. Particulars: Homo sapiens, BT-474, 72 h, 3 days incubation. (Cellular ATP, detected with luciferase, serves as a proxy for viable cell number.)

Sequence of B-Raf (P15056 whole entry): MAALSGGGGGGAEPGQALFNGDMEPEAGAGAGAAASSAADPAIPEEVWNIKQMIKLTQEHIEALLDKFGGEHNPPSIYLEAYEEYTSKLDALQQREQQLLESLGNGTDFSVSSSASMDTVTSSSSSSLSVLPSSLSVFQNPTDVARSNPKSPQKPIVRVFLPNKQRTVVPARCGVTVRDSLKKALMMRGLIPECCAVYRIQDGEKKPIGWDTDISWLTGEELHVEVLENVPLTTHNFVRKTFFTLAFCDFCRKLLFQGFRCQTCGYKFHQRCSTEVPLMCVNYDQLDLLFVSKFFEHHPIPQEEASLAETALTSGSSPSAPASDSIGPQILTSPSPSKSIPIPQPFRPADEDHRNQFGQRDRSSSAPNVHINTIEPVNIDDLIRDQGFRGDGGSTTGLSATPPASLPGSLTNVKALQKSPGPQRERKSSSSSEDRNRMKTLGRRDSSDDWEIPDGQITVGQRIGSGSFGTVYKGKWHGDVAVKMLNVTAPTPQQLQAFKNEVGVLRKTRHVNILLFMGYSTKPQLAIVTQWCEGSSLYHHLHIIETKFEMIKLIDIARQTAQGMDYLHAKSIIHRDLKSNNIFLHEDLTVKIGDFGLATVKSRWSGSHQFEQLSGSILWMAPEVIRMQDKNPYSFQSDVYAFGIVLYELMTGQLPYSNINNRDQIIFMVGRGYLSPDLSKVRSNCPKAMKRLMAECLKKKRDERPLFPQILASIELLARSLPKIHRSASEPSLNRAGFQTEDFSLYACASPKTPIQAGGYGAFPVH

Broadly, the IC50 is the concentration at which inhibition is half-maximal. A lower IC50 goes with higher potency. Take `CN1CCC(c2nc(-c3ccc(F)c(NS(=O)(=O)c4c(F)cccc4F)c3)c(-c3ccnc(Nc4ccc(N5CCOCC5)nc4)n3)s2)CC1` [Example 106]: the results for the IC50 against B-Raf and with BT474 tumor cells were under 0.1 µM and over 1 µM, respectively.
Turning to `CC(C)c1nc(-c2ccc(F)c(NS(=O)(=O)c3c(F)cccc3F)c2)c(-c2ccnc(Nc3ccc(N4CCN5CCOC[C@H]5C4)nc3)n2)s1` [Example 97], the concentration for half-maximal inhibition (IC50) is under 0.1 µM against B-Raf and over 1 µM in the test with BT474 tumor cells.
As for `CC(=O)N1CCN(c2ccc(Nc3nccc(-c4sc(C(C)C)nc4-c4cccc(NS(=O)(=O)c5cccc(F)c5)c4)n3)cn2)CC1` [Example 11, N-{3-[5-(2-{[6-(4-Acetyl-1-piperazinyl)-3-pyridinyl]amino}-4-pyrimidinyl)-2-(1-methylethyl)-1,3-thiazol-4-yl]phenyl}-3-fluorobenzenesulfonamide], the figures for the IC50 at B-Raf and in the test on BT474 tumor cells were under 0.1 µM and over 1 µM, respectively.
Consider `CS(=O)(=O)CCN1CCN(c2ccc(Nc3nccc(-c4oc(N5CCCC5)nc4-c4cccc(NS(=O)(=O)c5c(F)cccc5F)c4F)n3)cc2F)CC1` [Example 167], for which the IC50 against B-Raf was under 0.1 µM; in the test on BT474 tumor cells it was over 1 µM.
For the compound `Cc1cc(N2CCN(CCS(C)(=O)=O)CC2)ncc1Nc1nccc(-c2sc(C(C)C)nc2-c2cccc(NS(=O)(=O)c3c(F)cccc3F)c2)n1` [Example 131], the IC50 against B-Raf was under 0.1 µM; with BT474 tumor cells, over 1 µM.
In the case of `Cc1nc(Cl)sc1S(=O)(=O)Nc1cccc(-c2nc(C(C)C)sc2-c2ccnc(Nc3ccc(N4CCOCC4)nc3)n2)c1` [Example 42], the IC50 was under 0.1 µM against B-Raf and over 1 µM in the test with BT474 tumor cells.
With `Cc1cc(N2CCOCC2)ncc1Nc1nccc(-c2sc(N3CCCC3)nc2-c2cccc(NS(=O)(=O)c3c(F)cccc3F)c2)n1` [Example 124], the half-maximal inhibitory concentration (IC50) was under 0.1 µM against B-Raf and over 1 µM in the test with BT474 tumor cells.
On the same counts, the results for `O=S(=O)(Nc1cccc(-c2nc(N3CCCCC3)sc2-c2ccnc(Nc3ccc(N4CCOCC4)nc3)n2)c1)c1c(F)cccc1F` [Example 151] are under 0.1 µM and over 1 µM.
On the same counts, the results for `O=S(=O)(Nc1cc(-c2nc(N3CCCC3)sc2-c2ccnc(Nc3ccc(N4CCOCC4)nc3)n2)ccc1F)c1c(F)cccc1F` [Example 26, 2,6-Difluoro-N-{2-fluoro-5-[5-(2-{(6-(4-morpholinyl)-3-pyridinyl]amino}-4-pyrimidinyl)-2-(1-pyrrolidinyl)-1,3-thiazol-4-yl]phenyl}benzenesulfonamide] are under 0.1 µM and over 1 µM.
With `CC(C)c1nc(-c2cccc(NS(=O)(=O)c3c(F)cccc3F)c2)c(-c2ccnc(Nc3ccc(N4CCOCC4)c(F)c3)n2)o1` [Example 57], the results for the IC50 on B-Raf and in the test on BT474 tumor cells were under 0.1 µM and over 1 µM, respectively.
In the case of `O=S(=O)(Nc1cccc(-c2nc(N3CCOCC3)sc2-c2ccnc(Nc3ccc(N4CCOCC4)nc3)n2)c1F)c1c(F)cccc1F` [Example 122], the IC50 at B-Raf was under 0.1 µM; in the test with BT474 tumor cells, over 1 µM.
On the same counts, the results for `O=S1(=O)Cc2ccc(Nc3nccc(-c4sc(N5CCOCC5)nc4-c4cccc(NS(=O)(=O)c5c(F)cccc5F)c4F)n3)cc2C1` [Example 155] are under 0.1 µM and over 1 µM.
Turning to `CN1CCN(c2nc(-c3ccc(F)c(NS(=O)(=O)c4c(F)cccc4F)c3)c(-c3ccnc(Nc4ccc(N5CCOCC5)nc4)n3)s2)CC1` [Example 126], the IC50 on B-Raf was under 0.1 µM; in the test with BT474 tumor cells, over 1 µM.
For `CC(=O)N1CCN(c2ccc(Nc3nccc(-c4sc(C(C)C)nc4-c4cccc(NS(=O)(=O)C5CCCCC5)c4)n3)cn2)CC1` [Example 39], the IC50 was under 0.1 µM on B-Raf and over 1 µM with BT474 tumor cells.
Take `CC(C)(C)c1nc(-c2ccc(F)c(NS(=O)(=O)c3c(F)cccc3F)c2)c(-c2ccnc(Nc3ccc(N4CCOCC4)nc3)n2)s1` [Example 28, N-{5-[2-(1,1-Dimethylethyl)-5-(2-{[[6-(4-morpholinyl)-3-pyridinyl]amino}-4-pyrimidinyl)-1,3-thiazol-4-yl]-2-fluorophenyl]-2,6-difluorobenzenesulfonamide hydrochloride]: the IC50 on B-Raf is under 0.1 µM; with BT474 tumor cells, over 1 µM.
Consider `O=S(=O)(Nc1cc(-c2nc(N3CCOCC3)sc2-c2ccnc(Nc3ccc(N4CCOCC4)nc3)n2)ccc1F)c1c(F)cccc1F` [Example 121], for which the IC50 is under 0.1 µM against B-Raf and over 1 µM in the test on BT474 tumor cells.
On to `CC(C)c1nc(-c2ccc(F)c(NS(=O)(=O)c3c(F)cccc3F)c2)c(-c2ccnc(Nc3ccc(N4CCN(CCF)CC4)c(F)c3)n2)s1` [Example 25], for which the values for the IC50 against B-Raf and with BT474 tumor cells were under 0.1 µM and over 1 µM, respectively.
Take `O=S(=O)(Nc1cc(-c2nc(N3CCOCC3)sc2-c2ccnc(Nc3ccc4c(c3)OCCO4)n2)ccc1F)c1c(F)cccc1F` [Example 127]: the figures for the IC50 at B-Raf and in the test with BT474 tumor cells were 0.1 to 1 µM and over 1 µM, respectively.
In the case of `CC(C)c1nc(-c2ccnc(NS(=O)(=O)c3c(F)cccc3F)c2)c(-c2ccnc(Nc3ccc(N4CCN(CCF)CC4)c(F)c3)n2)s1` [Example 100], the IC50 against B-Raf was under 0.1 µM; in the test with BT474 tumor cells, over 1 µM.
On to `CC(C)c1nc(-c2cccc(NS(=O)(=O)c3c(F)cccc3F)c2)c(-c2ccnc(Nc3ccc(N4CCOCC4)c(C(=O)O)c3)n2)s1` [Example 14, 5-({4-[4-(3-{[(2,6-Difluorophenyl)sulfonyl]amino}phenyl)-2-(1-methylethyl)-1,3-thiazol-5-yl]-2-pyrimidinyl}amino)-2-(4-morpholinyl)benzoic acid], for which the IC50 against B-Raf was under 0.1 µM; in the test on BT474 tumor cells, over 1 µM.
Turning to `CC(C)(C)c1nc(-c2ccc(F)c(NS(=O)(=O)c3c(F)cccc3F)c2)c(-c2ccnc(Nc3ccc(N4CCN(CCF)CC4)c(F)c3)n2)s1` [Example 99], the IC50 on B-Raf was under 0.1 µM; with BT474 tumor cells, over 1 µM.
Regarding `CC(C)c1nc(-c2cccc(NS(=O)(=O)c3ccccc3)c2)c(-c2ccnc(Nc3ccc(N4CCOCC4)nc3)n2)s1` [Example 8, N-{3-[2-(1-Methylethyl)-5-(2-{[6-(4-morpholinyl)-3-pyridinyl]amino}-4-pyrimidinyl)-1,3-thiazol-4-yl]phenyl}benzenesulfonamide hydrochloride], the figures for the IC50 on B-Raf and in the test with BT474 tumor cells were under 0.1 µM and over 1 µM, respectively.
Consider `CC(C)c1nc(-c2cccc(NS(=O)(=O)C3CCCCC3)c2)c(-c2ccnc(Nc3ccc(N4CCOCC4)c(F)c3)n2)s1` [Example 38], for which the IC50 against B-Raf is 0.1 to 1 µM; with BT474 tumor cells it was over 1 µM.
On the same counts, the results for `CC(C)c1nc(-c2cccc(NS(=O)(=O)c3c(F)cccc3F)n2)c(-c2ccnc(Nc3ccc(N4CCOCC4)nc3)n2)s1` [Example 44] are under 0.1 µM and over 1 µM.
